Usually inhibition stands for the relative decrease from the control value, in per cent.

The test has as its system P.A.F.-induced aggregation of platelets from rabbit blood. Description: Anti-P.A.F. effect in vitro: inhibition of P.A.F.-induced platelet aggregation. The settings on record: Oryctolagus cuniculus, Platelet, test substance concentration 10^-5 mol/l. The test is classed as cell-based, rabbit (New Zealand hybrids). An outline of the steps:
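Washed, aspirin-treated rabbit platelets (4×10^9/ml stock suspension) in modified Tyrode buffer, pH 7.4, preincubated 90 s with test compound at 10^-5 mol/l final, then challenged with P.A.F. Aggregation followed 4–5 min in an aggregometer. Inhibition expressed in % relative to P.A.F.-only (100%) and platelet-only (0%) controls.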
`Cc1ccnc(N2CCN(CCc3c(C)n4c5c(cccc35)CCC4)CC2)c1` [Example 1, 5,6-Dihydro-2-methyl-1-{2-[4-(4-methylpyridin-2-yl)piperazin-1-yl]ethyl}-4H-pyrrolo[3,2,1-ij]quinoline] returned an inhibition at 10 µM of 97%. Then `Cc1ccnc(N2CCN(CCc3c(C)n4c5c(cccc35)CCC4c3ccccc3)CC2)c1` (stereo not drawn) [Example 3, 5,6-dihydro-2-methyl-4-phenyl-1-{2-[4-(4-methylpyridine-2-yl)piperazin-1-yl]-ethyl}-4H-pyrrolo[3,2,1-ij]quinoline], with 100%.

Molecule `CCCCCCCC1CCc2cccc3c(CCN4CCN(c5cc(C)ccn5)CC4)c(C)n1c23` (stereo not drawn) [Example 4, 4-n-heptyl-5,6-dihydro-2-methyl-1-{2-[4-(4-methylpyridin-2-yl)piperazin-1-yl]ethyl}-4H-pyrrolo[3,2,1-ij]-quinoline] yielded an inhibition at 10 µM of 58%. In turn, `COc1ccc(-c2c(CCN3CCN(c4cc(C)ccn4)CC3)c3cccc4c3n2CCC4)cc1` [Example 7, 2-(4-methoxy-phenyl)-1-{2-[4-(4-methylpyridin-2-yl)piperazin-1-yl]ethyl}-5,6-dihydro-4H-pyrrolo[3,2,1-ij]quinoline] registered an inhibition at 10 µM of 100%.

`Cc1ccnc(N2CCN(CCc3c(-c4ccc(O)cc4)n4c5c(cccc35)CCC4)CC2)c1` [Example 8, 2-(4-hydroxyphenyl)-1-{2-[4-(4-methylpyridin-2-yl)piperazin-1-yl]ethyl}-5,6-dihydro-4H-pyrrolo[3,2,1-ij]quinoline] returned an inhibition at 10 µM of 100%.

`Cc1ccnc(N2CCN(CCc3c(C)n4c5c(cc(Br)cc35)CCC4)CC2)c1` [Example 9, 8-Bromo-2-methyl-1-{2-[4-(4-methylpyridin-2-yl)piperazin-1-yl]ethyl}-5,6-dihydro-4H-pyrrolo[3,2,1-ij]quinoline] had an inhibition at 10 µM of 73%. Then `Cc1ccnc(N2CCN(CCc3c(C)n4c5c(cc([N+](=O)[O-])cc35)CCC4)CC2)c1` [Example 10, 2-Methyl-8-nitro-1-{2-[4-(4-methylpyridin-2-yl)-piperazin-1-yl]ethyl}-5,6-dihydro-4H-pyrrolo[3,2,1-ij]quinoline], with 94%; and `Cc1ccnc(N2CCN(CCc3c(C)n4c5c(cccc35)SCC4)CC2)c1` [Example 11, 5-Methyl-6-{2-[4-(4-methylpyridin-2-yl)piperazin-1-yl]ethyl}-2,3-dihydro-pyrrolo[1,2,3-de]-1,4-benzo-thiazine], with 89%.

The molecule `Cc1ccnc(N2CCN(CCc3c(-c4ccc(OCCCCO)cc4)n4c5c(cccc35)CCC4)CC2)c1` [Example 12, 2-[4-(4-Hydroxybutyloxy)-phenyl]-1-{2-[4-(4-methylpyridin-2-yl)piperazin-1-yl]ethyl}-5,6-dihydro-4H-pyrrolo[3,2,1-ij]quinoline] returned an inhibition at 10 µM of 100%. `Cc1ccnc(N2CCN(CCc3cn4c5c(cccc35)CCC4)CC2)c1` [Example 13, 5,6-Dihydro-1-{2-[4-(4-methylpyridin-2-yl)piperazin-1-yl]ethyl}-4H-pyrrolo[3,2,1-ij]quinoline] showed an inhibition at 10 µM of 93%. In the case of `CCc1c(C(O)CN2CCN(c3cc(C)ccn3)CC2)c2cccc3c2n1CCC3` (stereo not drawn) [Example 14, 2-Ethyl-5,6-dihydro-1-{2-[4-(4-methylpyridin-2-yl)piperazin-1-yl]-1-hydroxyethyl}-4H-pyrrolo[3,2,1-ij]quinoline], the inhibition at 10 µM is 86%. In the case of `CCc1c(CCN2CCN(c3cc(C)ccn3)CC2)c2cccc3c2n1CCC3` [Example 15, 2-Ethyl-5,6-dihydro-1-{2-[4-(4-methylpyridin-2-yl)piperazin-1-yl]ethyl}-4H-pyrrolo[3,2,1-ij]quinoline], at 10 µM the inhibition was 85%. In the case of `Cc1ccnc(N2CCN(CCc3c(CO)n4c5c(cccc35)CCC4)CC2)c1` [Example 16, 5,6-dihydro-2-hydroxymethyl-1-{2-[4-(4-methylpyridin-2-yl)piperazin-1-yl]ethyl}-4H-pyrrolo[3,2,1-ij]quinoline], the inhibition at 10 µM turned out to be 73%. Then `Cc1ccnc(N2CCN(CCc3c(C)n4c5c(cc(C(O)C(C)C)cc35)CCC4)CC2)c1` (stereo not drawn) [Example 19, 5,6-Dihydro-8-(1-hydroxy-2-methylpropyl)-2-methyl-1-{2-[4-(4-methylpyridin-2-yl)piperazin-1-yl]ethyl}-4H-pyrrolo-[3,2,1-ij]quinoline], with 83%; and `Cc1ccnc(N2CCN(CCc3c(C)n4c5c(cc(N)cc35)CCC4)CC2)c1` [Example 20, 8-Amino-5,6-dihydro-2-methyl-1-{2-[4-(4-methylpyridin-2-yl)piperazin-1-yl]ethyl}-4H-pyrrolo[3,2,1-ij]quinoline], with 17%; and `Cc1ccnc(N2CCN(CCc3c(C)n4c5c(cc(CC(C)C)cc35)CCC4)CC2)c1` [Example 21, 5,6-Dihydro-2-methyl-8-(2-methylpropyl)-1-{2-[4-(4-methylpyridin-2-yl)piperazin-1-yl]ethyl}-4H-pyrrolo[3,2,1-ij]quinoline], with 91%. `CCCCC1CCc2cc(C(=O)C(C)C)cc3c(CCN4CCN(c5cc(C)ccn5)CC4)c(C)n1c23` (stereo not drawn) [Example 23, 4-n-Butyl-5,6-dihydro-8-(2-methyl-1-oxopropyl)-2-methyl-1-{2-[4-(4-methylpyridin-2-yl)piperazin-1-yl]ethyl}-4H-pyrrolo[3,2,1-ij]quinoline] gave an inhibition at 10 µM of 100%. Molecule `CC(=O)Oc1cc2c3c(c1)c(CCN1CCN(c4cc(C)ccn4)CC1)c(C)n3CCC2` [Example 24, 8-Acetoxy-5,6-dihydro-2-methyl-1-{2-[4-(4-methyl-pyridin-2-yl)piperazin-1-yl]ethyl}-4H-pyrrolo[3,2,1-ij]quinoline] had an inhibition at 10 µM of 80%. `Cc1ccnc(N2CCN(CCc3c(C)n4c5c(cc(NC(=O)c6ccccc6)cc35)CCC4)CC2)c1` [Example 25, 8-Benzoylamino-5,6-dihydro-2-methyl-1-{2-[4-(4-methylpyridin-2-yl)piperazin-1-yl]-ethyl}-4H-pyrrolo[3,2,1-ij]quinoline]: the inhibition at 10 µM came out at 43%. The molecule `CC(C)=Cc1cc2c3c(c1)c(CCN1CCN(c4cc(C)ccn4)CC1)c(C)n3CCC2` [Example 26, 5,6-Dihydro-2-methyl-8-(2-methylprop-1-enyl)-1-{2-[4-(4-methylpyridin-2-yl)piperazin-1-yl]ethyl}-4H-pyrrolo[3,2,1-ij]quinoline] displayed an inhibition at 10 µM of 89%.

As for `Cc1ccnc(N2CCN(CCc3c(C)n4c5c(cc(C(=O)C(C)C)cc35)CCC4)CC2)c1` [Example 27, 5,6-dihydro-2-methyl-8-(2-methyl-1-oxopropyl)-1-{2-[4-(4-methylpyridin-2-yl)piperazin-1-yl]ethyl}-4H-pyrrolo-[3,2,1-ij]quinoline], the inhibition at 10 µM stood at 83%. The molecule `Cc1ccnc(N2CCN(CCc3c(C)n4c5c(cccc35)CC4C)CC2)c1` (stereo not drawn) [Example 33] had an inhibition at 10 µM of 71%.

`Cc1ccnc(N2CCN(CCc3c(C)n4c5c(ccc(Cl)c35)OCC4)CC2)c1` [Example 35] displayed an inhibition at 10 µM of 56%. The value for `Cc1c(CCN2CCN(c3ccccn3)CC2)c2cccc3c2n1CCC3` [Example 37] was 28%; that for `Cc1ccnc(N2CCN(CCc3c(-c4ccc(F)cc4)n4c5c(cccc35)CCC4)CC2)c1` [Example 47] was 95%; that for `Cc1ccnc(N2CCN(CCc3c(C)n4c5c(cc(C)cc35)CCC4)CC2)c1` [Example 54] was 75%. In the case of `Cc1cc2c3c(c1)c(CCN1CCC(C(=O)c4ccc(F)cc4)CC1)c(C)n3CCC2` [Example 55], the inhibition at 10 µM stood at 40%.

Turning to `Cc1ccnc(N2CCN(CCc3c(C)n4c5c(cccc35)C(C)CC4)CC2)c1` (stereo not drawn) [Example 57], at 10 µM the inhibition was 86%. `COc1ccc(C2CCc3cccc4c(CCN5CCN(c6cc(C)ccn6)CC5)c(C)n2c34)cc1` (stereo not drawn) [Example 59] yielded an inhibition at 10 µM of 89%.

Take `Cc1ccnc(N2CCN(CCc3c(C)n4c5c(cc(NC(=O)C(C)C)cc35)CCC4)CC2)c1` [Example 60]: testing at 10 µM gave an inhibition of 44%. `Cc1ccnc(N2CCN(CCc3c(C)n4c5c(cccc35)CCC4c3ccc(O)cc3)CC2)c1` (stereo not drawn) [Example 61]: testing at 10 µM gave an inhibition of 83%.

The molecule `C=CCCC1CCc2cccc3c(CCN4CCN(c5cc(C)ccn5)CC4)c(C)n1c23` (stereo not drawn) [Example 62] displayed an inhibition at 10 µM of 70%. Molecule `CCCCC1CCc2cc(OC)cc3c(CCN4CCN(c5cc(C)ccn5)CC4)c(C)n1c23` (stereo not drawn) [Example 63] showed an inhibition at 10 µM of 98%. With `COc1ccc(C2CCc3cc(OC)cc4c(CCN5CCN(c6cc(C)ccn6)CC5)c(C)n2c34)cc1` (stereo not drawn) [Example 65], 10 µM produced 100% inhibition. `Cc1ccnc(N2CCN(CCc3c(C)n4c5c(cc(C(=O)c6ccccc6)cc35)CCC4)CC2)c1` [Example 66] had an inhibition at 10 µM of 100%. Then `CC(=O)c1cc2c3c(c1)c(CCN1CCN(c4cc(C)ccn4)CC1)c(C)n3CCC2` [Example 67], with 76%; and `CCCCC1CCc2cccc3c(CCN4CCN(c5cc(C)ccn5)CC4)c(C)n1c23` (stereo not drawn) [Example 73, 4-n-butyl-5,6-dihydro-2-methyl-1-{2-[4-(4-methylpyridin-2-yl)piperazin-1-yl]ethyl}-4H-pyrrolo[3,2,1-ij]quinoline], with 99%; and `CCCCC1CCc2cc(O)cc3c(CCN4CCN(c5cc(C)ccn5)CC4)c(C)n1c23` (stereo not drawn) [Example 76], with 99%. On to `Cc1ccnc(N2CCN(CCc3c(C)n4c5c(cc(Cc6ccccc6)cc35)CCC4)CC2)c1` [Example 77], for which 10 µM produced 100% inhibition. Molecule `Cc1ccnc(N2CCN(CCc3c(C)n4c5c(c(Cl)cc(Cl)c35)OCC4)CC2)c1` [Example 79] registered an inhibition at 10 µM of 71%.

For the molecule `CNc1cc2c3c(c1)c(CCN1CCN(c4cc(C)ccn4)CC1)c(C)n3CCC2` [Example 80], 10 µM produced 72% inhibition.

`Cc1ccnc(N2CCN(CCc3c(C)n4c5c(cc(C(=O)C6CCCCC6)cc35)CCC4)CC2)c1` [Example 83] returned an inhibition at 10 µM of 100%.

These data come from patent US5324725A, “7-fused 2-(piperazinoalkyl) indole derivatives, intermediates and compositions thereof” (Kali-Chemie Pharma GmbH, priority 1991, dated 1994).
